Patent US20210300936A1, “PYRAZOLOTRIAZOLOPYRIMIDINE DERIVATIVES AS A2A RECEPTOR ANTAGONIST” (BEIGENE, LTD., priority 2018, published 2021)

Target: human A2A receptor (A2AR) (Homo sapiens, UniProt P29274)
Test: Luciferase reporter assay (HEK293-A2AR-luc2p/CRE/Hygro cells, 3 nM CGS21680)
Format: cell-based
Details: 3 nM CGS21680, 5 h incubation
Summary of the method: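 Antagonist (0.1–10000 nM) and 3 nM CGS21680 were co-added for 5 h to stable HEK293-A2AR-luc2p/CRE cells, 18 h after seeding in 1% FBS medium containing adenosine deaminase. Luminescence was normalized to agonist alone (100%), and IC50 came from the dose–inhibition curve.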

Chain of human A2A receptor (A2AR) (P29274 whole entry): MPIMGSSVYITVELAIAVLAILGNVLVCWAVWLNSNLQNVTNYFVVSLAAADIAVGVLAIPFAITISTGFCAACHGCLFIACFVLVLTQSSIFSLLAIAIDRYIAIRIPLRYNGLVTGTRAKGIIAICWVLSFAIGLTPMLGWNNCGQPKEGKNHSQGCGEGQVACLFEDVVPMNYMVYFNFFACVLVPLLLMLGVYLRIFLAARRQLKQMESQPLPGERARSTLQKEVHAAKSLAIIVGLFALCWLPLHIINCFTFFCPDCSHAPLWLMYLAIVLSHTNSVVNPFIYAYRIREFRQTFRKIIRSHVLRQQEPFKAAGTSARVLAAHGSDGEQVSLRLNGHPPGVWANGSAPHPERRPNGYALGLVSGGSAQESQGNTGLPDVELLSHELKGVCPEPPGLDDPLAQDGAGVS

IC50	SMILES
3.5 nM	CC(C(=O)N1CCN(c2ccc(OCCO)cc2)CC1)(c1ccccc1)n1ncc2c1nc(N)n1nc(-c3ccco3)nc21 (stereo not drawn) [Compound A108, 2-(5-amino-2-(furan-2-yl)-7H-pyrazolo[4,3-e][1,2,4]triazolo[1,5-c]pyrimidin-7-yl)-1-(4-(4-(2-hydroxyethoxy)phenyl)piperazin-1-yl)-2-phenylpropan-1-one]
2.7 nM	CNC(=O)c1ccc(N2CCN(C(=O)C(C)(c3ccccc3)n3ncc4c3nc(N)n3nc(-c5ccco5)nc43)CC2)cc1 (stereo not drawn) [Compound A92, 4-(4-(2-(5-amino-2-(furan-2-yl)-7H-pyrazolo[4,3-e][1,2,4]triazolo[1,5-c]pyrimidin-7-yl)-2-phenylpropanoyl)piperazin-1-yl)-N-methylbenzamide]
9.1 nM	CCCC(C(=O)N1CCN(c2ccc(OCCOC)cc2)CC1)n1ncc2c1nc(N)n1nc(-c3ccco3)nc21 (stereo not drawn) [Compound A5, 2-(5-amino-2-(furan-2-yl)-7H-pyrazolo[4,3-e][1,2,4]triazolo[1,5-c]pyrimidin-7-yl)-1-(4-(4-(2-methoxyethoxy)phenyl)piperazin-1-yl)pentan-1-one]
13.8 nM	CC(C(=O)N1CCN(c2cccc(C(=O)N3CCCCC3)c2)CC1)(c1ccccc1)n1ncc2c1nc(N)n1nc(-c3ccco3)nc21 (stereo not drawn) [Compound A89, 2-(5-amino-2-(furan-2-yl)-7H-pyrazolo[4,3-e][1,2,4]triazolo[1,5-c]pyrimidin-7-yl)-2-phenyl-1-(4-(3-(piperidine-1-carbonyl)phenyl)piperazin-1-yl)propan-1-one]
0.5 nM	Nc1nc2c(cnn2C(C(=O)N2CCN(c3ccc(OCCO)cc3)CC2)c2ccccc2)c2nc(-c3ccco3)nn12 (stereo not drawn) [Compound A61, 2-(5-amino-2-(furan-2-yl)-7H-pyrazolo[4,3-e][1,2,4]triazolo[1,5-c]pyrimidin-7-yl)-1-(4-(4-(2-hydroxyethoxy)phenyl)piperazin-1-yl)-2-phenylethan-1-one]
28.6 nM	CC(C(=O)N1CCN(c2ccccc2C(=O)N2CCCCC2)CC1)(c1ccccc1)n1ncc2c1nc(N)n1nc(-c3ccco3)nc21 (stereo not drawn) [Compound A99, 2-(5-amino-2-(furan-2-yl)-7H-pyrazolo[4,3-e][1,2,4]triazolo[1,5-c]pyrimidin-7-yl)-2-phenyl-1-(4-(2-(piperidine-1-carbonyl)phenyl)piperazin-1-yl)propan-1-one]
23.1 nM	CC(C(=O)N1CCN(c2ccc(OCCN)cc2)CC1)n1ncc2c1nc(N)n1nc(-c3ccco3)nc21 (stereo not drawn) [Compound A7, 2-(5-amino-2-(furan-2-yl)-7H-pyrazolo[4,3-e][1,2,4]triazolo[1,5-c]pyrimidin-7-yl)-1-(4-(4-(2-aminoethoxy)phenyl)piperazin-1-yl)propan-1-one]
3.2 nM	Nc1nc2c(cnn2C(C(=O)N2CCN(c3ccc(F)cc3)CC2)c2ccccc2)c2nc(-c3ccco3)nn12 (stereo not drawn) [Compound A49, 2-(5-amino-2-(furan-2-yl)-7H-pyrazolo[4,3-e][1,2,4]triazolo[1,5-c]pyrimidin-7-yl)-1-(4-(4-fluorophenyl)piperazin-1-yl)-2-phenylethan-1-one]
46.3 nM	CC(C(=O)N1CCN(c2ccc(OCCN(C)C)cc2)CC1)n1cc2c(nc(N)n3nc(-c4ccco4)nc23)n1 (stereo not drawn) [Compound C19, 2-(5-amino-2-(furan-2-yl)-8H-pyrazolo[4,3-e][1,2,4]triazolo[1,5-c]pyrimidin-8-yl)-1-(4-(4-(2-(dimethylamino)ethoxy)phenyl)piperazin-1-yl)propan-1-one]
1.3 nM	COCCOc1ccc(N2CCN(C(=O)C(CC(C)C)n3ncc4c3nc(N)n3nc(-c5ccco5)nc43)CC2)cc1 (stereo not drawn) [Compound A16, 2-(5-amino-2-(furan-2-yl)-7H-pyrazolo[4,3-e][1,2,4]triazolo[1,5-c]pyrimidin-7-yl)-1-(4-(4-(2-methoxyethoxy)phenyl)piperazin-1-yl)-4-methylpentan-1-one]
28.4 nM	COCCOc1ccc(N2CCN(C(=O)C(C)n3cc4c(nc(N)n5nc(-c6ccco6)nc45)n3)CC2)cc1 (stereo not drawn) [Compound C1, 2-(5-amino-2-(furan-2-yl)-8H-pyrazolo[4,3-e][1,2,4]triazolo[1,5-c]pyrimidin-8-yl)-1-(4-(4-(2-methoxyethoxy)phenyl)piperazin-1-yl)propan-1-one]
3.9 nM	C[C@](C(=O)N1CCN(c2ccc(OCCCN3CCOCC3)cc2)CC1)(c1ccccc1)n1ncc2c1nc(N)n1nc(-c3ccco3)nc21 [Compound A76b, (R)-2-(5-amino-2-(furan-2-yl)-7H-pyrazolo[4,3-e][1,2,4]triazolo[1,5-c]pyrimidin-7-yl)-1-(4-(4-(3-morpholinopropoxy)phenyl)piperazin-1-yl)-2-phenylpropan-1-one]
1.4 nM	COCCOc1ccc(N2CCN(C(=O)C(CC(C)C)n3ncc4c3nc(N)n3nc(-c5ccco5)nc43)CC2)c(F)c1 (stereo not drawn) [Compound A23, 2-(5-amino-2-(furan-2-yl)-7H-pyrazolo[4,3-e][1,2,4]triazolo[1,5-c]pyrimidin-7-yl)-1-(4-(2-fluoro-4-(2-methoxyethoxy)phenyl)piperazin-1-yl)-4-methylpentan-1-one]
67.4 nM	COCCOc1ccc(N2CCN(C(=O)C(c3ccccc3)n3ncc4c3nc(N)n3nc(-c5ccco5)nc43)CC2C)cc1 (single isomer, unassigned) [Compound A46a]
209 nM	CCCC(C(=O)N1CCN(c2ccc(OCCOC)cc2)CC1)n1cc2c(nc(N)n3nc(-c4ccco4)nc23)n1 (single isomer, unassigned) [Compound C5b]
9.2 nM	CC(C(=O)N1CCN(c2ccc(C(=O)N3CCCCC3)cc2)CC1)(c1ccccc1)n1ncc2c1nc(N)n1nc(-c3ccco3)nc21 (stereo not drawn) [Compound A102, 2-(5-amino-2-(furan-2-yl)-7H-pyrazolo[4,3-e][1,2,4]triazolo[1,5-c]pyrimidin-7-yl)-2-phenyl-1-(4-(4-(piperidine-1-carbonyl)phenyl)piperazin-1-yl)propan-1-one]
3.7 nM	CC(C(=O)N1CCN(c2ccc(C(=O)NCC3(O)COC3)cc2)CC1)(c1ccccc1)n1ncc2c1nc(N)n1nc(-c3ccco3)nc21 (stereo not drawn) [Compound A83, 4-(4-(2-(5-amino-2-(furan-2-yl)-7H-pyrazolo[4,3-e][1,2,4]triazolo[1,5-c]pyrimidin-7-yl)-2-phenylpropanoyl)piperazin-1-yl)-N-((3-hydroxyoxetan-3-yl)methyl)benzamide]
6.4 nM	COCCOc1ccc(N2CCN(C(=O)C(C)(c3cccc(C)c3)n3ncc4c3nc(N)n3nc(-c5ccco5)nc43)CC2)cc1 (stereo not drawn) [Compound A75, 2-(5-amino-2-(furan-2-yl)-7H-pyrazolo[4,3-e][1,2,4]triazolo[1,5-c]pyrimidin-7-yl)-1-(4-(4-(2-methoxyethoxy)phenyl)piperazin-1-yl)-2-(m-tolyl)propan-1-one]
2.8 nM	COCCOc1ccc(N2CCN(C(=O)C(c3ccccc3)n3ncc4c3nc(N)n3nc(-c5ccco5)nc43)C[C@H]2C)cc1 (stereo partly drawn) [Compound A47, 2-(5-amino-2-(furan-2-yl)-7H-pyrazolo[4,3-e][1,2,4]triazolo[1,5-c]pyrimidin-7-yl)-1-((R)-4-(4-(2-methoxyethoxy)phenyl)-3-methylpiperazin-1-yl)-2-phenylethan-1-one]
1.6 nM	Nc1nc2c(cnn2C(C(=O)N2CCN(c3ccc(F)cc3F)CC2)c2ccccc2)c2nc(-c3ccco3)nn12 (stereo not drawn) [Compound A48, 2-(5-amino-2-(furan-2-yl)-7H-pyrazolo[4,3-e][1,2,4]triazolo[1,5-c]pyrimidin-7-yl)-1-(4-(2,4-difluorophenyl)piperazin-1-yl)-2-phenylethan-1-one]
30.6 nM	CC(C(=O)N1CCN(c2ccc(OCCN(C)C)cc2)CC1)n1ncc2c1nc(N)n1nc(-c3ccco3)nc21 (stereo not drawn) [Compound A18, 2-(5-amino-2-(furan-2-yl)-7H-pyrazolo[4,3-e][1,2,4]triazolo[1,5-c]pyrimidin-7-yl)-1-(4-(4-(2-(dimethylamino)ethoxy)phenyl)piperazin-1-yl)propan-1-one]
7 nM	Nc1nc2c(cnn2C(C(=O)N2CCc3ccc(OC(F)(F)F)cc3C2)c2ccccc2)c2nc(-c3ccco3)nn12 (stereo not drawn) [Compound B6, 2-(5-amino-2-(furan-2-yl)-7H-pyrazolo[4,3-e][1,2,4]triazolo[1,5-c]pyrimidin-7-yl)-2-phenyl-1-(7-(trifluoromethoxy)-3,4-dihydroisoquinolin-2(1H)-yl)ethan-1-one]
3.9 nM	CC(C(=O)N1CCN(c2ccc(OCCN3CCCC3)cc2)CC1)(c1ccccc1)n1ncc2c1nc(N)n1nc(-c3ccco3)nc21 (stereo not drawn) [Compound A101, 2-(5-amino-2-(furan-2-yl)-7H-pyrazolo[4,3-e][1,2,4]triazolo[1,5-c]pyrimidin-7-yl)-2-phenyl-1-(4-(4-(2-(pyrrolidin-1-yl)ethoxy)phenyl)piperazin-1-yl)propan-1-one]
1.7 nM	COCCOc1ccc(N2CCN(C(=O)C(c3ccccc3)n3ncc4c3nc(N)n3nc(-c5ccco5)nc43)CC2)c(F)c1F (stereo not drawn) [Compound A56, 2-(5-amino-2-(furan-2-yl)-7H-pyrazolo[4,3-e][1,2,4]triazolo[1,5-c]pyrimidin-7-yl)-1-(4-(2,3-difluoro-4-(2-methoxyethoxy)phenyl)piperazin-1-yl)-2-phenylethan-1-one]
168 nM	COCCOc1ccc(N2CCN(C(=O)C(C3CC3)n3cc4c(nc(N)n5nc(-c6ccco6)nc45)n3)CC2)cc1 (single isomer, unassigned) [Compound C16b]
4.9 nM	CCCC(C(=O)N1CCN(c2cc(F)c(OCCOC)cc2F)CC1)n1ncc2c1nc(N)n1nc(-c3ccco3)nc21 (stereo not drawn) [Compound A54, 2-(5-amino-2-(furan-2-yl)-7H-pyrazolo[4,3-e][1,2,4]triazolo[1,5-c]pyrimidin-7-yl)-1-(4-(2,5-difluoro-4-(2-methoxyethoxy)phenyl)piperazin-1-yl)pentan-1-one]
14 nM	CC(C(=O)N1CCC2(CC1)COC2)(c1ccccc1)n1ncc2c1nc(N)n1nc(-c3ccco3)nc21 (stereo not drawn) [Compound B34]
